Assay results as given in ChEMBL document CHEMBL1201862, “PubChem BioAssay data set” (2004).
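96-well plates; 48 h exposure; 5 concentrations. Endpoints by linear interpolation between flanking doses. Not reached: highest tested concentration assigned. GI50 is the concentration that inhibits growth by half.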 Calls of active or inactive are those of the source. No stated cut-off is given here; in the data, active = GI50 up to about 1.1 µM and inactive = higher.

Experiments:
Assay in all cases: growth of human tumour cells (NCI), 48 h
NCI-H522 = tested on: NCI-H522
BT-549 = tested on: BT-549
DU-145 = tested on: DU-145
A498 = tested on: A498
Malme-3M = tested on: Malme-3M
EKVX = tested on: EKVX
HOP-92 = tested on: HOP-92
KM12 = tested on: KM12
UO-31 = tested on: UO-31
SN12C = tested on: SN12C
U-251 = tested on: U-251
SK-MEL-28 = tested on: SK-MEL-28
NCI-H460 = tested on: NCI-H460
NCI-H23 = tested on: NCI-H23
HCT-15 = tested on: HCT-15
IGROV-1 = tested on: IGROV-1
Hs-578T = tested on: Hs-578T
OVCAR-5 = tested on: OVCAR-5
M14 = tested on: M14
HCC 2998 = tested on: HCC 2998

| Compound | GI50 (NCI-H522) | GI50 (BT-549) | GI50 (DU-145) | GI50 (A498) | GI50 (Malme-3M) | GI50 (EKVX) | GI50 (HOP-92) | GI50 (KM12) | GI50 (UO-31) | GI50 (SN12C) | GI50 (U-251) | GI50 (SK-MEL-28) | GI50 (NCI-H460) | GI50 (NCI-H23) | GI50 (HCT-15) [µM] | GI50 (IGROV-1) | GI50 (Hs-578T) | GI50 (OVCAR-5) | GI50 (M14) | GI50 (HCC 2998) |
| --- | --- | --- | --- | --- | --- | --- | --- | --- | --- | --- | --- | --- | --- | --- | --- | --- | --- | --- | --- | --- |
| O=c1c(C(c2ccc([N+](=O)[O-])cc2)c2c(O)oc3ccccc3c2=O)c(O)oc2ccccc12 | > 100 µM (inactive) | > 100 µM (inactive) | > 100 µM (inactive) | > 100 µM (inactive) | > 100 µM (inactive) | > 100 µM (inactive) | > 100 µM (inactive) | > 100 µM (inactive) | > 100 µM (inactive) | > 100 µM (inactive) | > 100 µM (inactive) | > 100 µM (inactive) | > 100 µM (inactive) | > 100 µM (inactive) | > 100 | > 100 µM (inactive) | > 100 µM (inactive) |  |  |  |
| COC(=O)C1=C(OC(=O)/C(=C/c2ccccc2)c2ccc(OC)cc2)C(C(=O)OC)[C@@]2(O)[C@@H](C(=O)OC)[C@H](C)C[C@@H]1[C@@H]2C(=O)OC (some centres undefined) | 35.3 µM (inactive) | 21 µM (inactive) | > 100 µM (inactive) | > 100 µM (inactive) | > 100 µM (inactive) | > 100 µM (inactive) |  | > 100 µM (inactive) | > 100 µM (inactive) | > 100 µM (inactive) | 63.2 µM (inactive) | > 100 µM (inactive) | > 100 µM (inactive) | 50.1 µM (inactive) | > 100 | 55.7 µM (inactive) | 20.6 µM (inactive) | 65.6 µM (inactive) | > 100 µM (inactive) | > 100 µM (inactive) |
| COc1ccc2[nH]c3c(C)c4cnccc4c(C)c3c2c1 | 2.02 µM (inactive) | 7.48 µM (inactive) | 2.93 µM (inactive) |  | 1.45 µM (inactive) | 1.87 µM (inactive) | 5.4 µM (inactive) | 1.31 µM (inactive) |  | 2.24 µM (inactive) | 1.72 µM (inactive) | 1.94 µM (inactive) | 1.78 µM (inactive) | 6.25 µM (inactive) | 1.61 | 3.85 µM (inactive) | 5.55 µM (inactive) | 3.11 µM (inactive) | 1.26 µM (inactive) | 1.67 µM (inactive) |
| CN(C)CCCNC(=O)N/N=C/c1ccc(O)cc1 | > 100 µM (inactive) | > 100 µM (inactive) | > 100 µM (inactive) | > 100 µM (inactive) | > 100 µM (inactive) |  |  | > 100 µM (inactive) | > 100 µM (inactive) | > 100 µM (inactive) | > 100 µM (inactive) | > 100 µM (inactive) | > 100 µM (inactive) | > 100 µM (inactive) | > 100 | > 100 µM (inactive) | > 100 µM (inactive) | > 100 µM (inactive) | > 100 µM (inactive) | > 100 µM (inactive) |
| O=P(OCc1ccccc1)(OCc1ccccc1)C(O)/C=C/c1ccccc1 (centres undefined) | 23.8 µM (inactive) | 28.2 µM (inactive) | 42.9 µM (inactive) | 17.9 µM (inactive) | 19.6 µM (inactive) | 33.3 µM (inactive) | 19.4 µM (inactive) | 19.8 µM (inactive) | 26.6 µM (inactive) | 19.8 µM (inactive) | 13.1 µM (inactive) | 37.9 µM (inactive) |  | 20.2 µM (inactive) | 36.8 | 19.6 µM (inactive) | 17 µM (inactive) | 30.6 µM (inactive) | 18.1 µM (inactive) |  |
| CC(/C=C/c1ccccc1)=N\NC(=S)N/N=C(C)/C=C/c1ccccc1 | 25.3 µM (inactive) | 24.5 µM (inactive) | 31.2 µM (inactive) | 1.24 µM (inactive) | 10 µM (inactive) | 47.6 µM (inactive) |  |  | 4.33 µM (inactive) | 34.4 µM (inactive) | 4.59 µM (inactive) | 15.4 µM (inactive) | 5.11 µM (inactive) | 23.7 µM (inactive) | 12.7 | 13.4 µM (inactive) | > 100 µM (inactive) | 28.5 µM (inactive) | 17.2 µM (inactive) | 20.9 µM (inactive) |
| CN1CCCCCC(=N\O)/C(=N/O)CCCCC1 | > 100 µM (inactive) | 80.7 µM (inactive) | > 100 µM (inactive) | > 100 µM (inactive) | > 100 µM (inactive) | > 100 µM (inactive) | > 100 µM (inactive) | > 100 µM (inactive) | > 100 µM (inactive) | > 100 µM (inactive) | > 100 µM (inactive) | > 100 µM (inactive) | > 100 µM (inactive) | > 100 µM (inactive) | > 100 | > 100 µM (inactive) | > 100 µM (inactive) | > 100 µM (inactive) | > 100 µM (inactive) |  |
| COc1ccc(CC(O)CN2CCOCC2)cc1 (centres undefined) | > 100 µM (inactive) | > 100 µM (inactive) | > 100 µM (inactive) | > 100 µM (inactive) | > 100 µM (inactive) | > 100 µM (inactive) | > 100 µM (inactive) | > 100 µM (inactive) | > 100 µM (inactive) | > 100 µM (inactive) | > 100 µM (inactive) | > 100 µM (inactive) | > 100 µM (inactive) | > 100 µM (inactive) | > 100 | > 100 µM (inactive) | > 100 µM (inactive) | > 100 µM (inactive) | > 100 µM (inactive) |  |
| COc1cc(/C=C2\Cc3cc(OC)c(OC)cc3C2=O)cc(OC)c1 | 3.74 µM (inactive) | 15.3 µM (inactive) | > 100 µM (inactive) | 36.8 µM (inactive) | 15.8 µM (inactive) | > 100 µM (inactive) | 22.8 µM (inactive) |  | > 100 µM (inactive) | > 74.1 µM (inactive) | 35.8 µM (inactive) | > 100 µM (inactive) | 15.1 µM (inactive) | 17.6 µM (inactive) | 5.26 | 5.93 µM (inactive) | 22 µM (inactive) | > 100 µM (inactive) | > 100 µM (inactive) |  |
| O=c1[nH]/c(=C/c2cccs2)c(=O)[nH]/c1=C/c1ccc(OCc2ccccc2)cn1 | 0.0171 µM (active) | 0.0239 µM (active) | 0.0716 µM (active) | 0.0374 µM (active) | 0.0197 µM (active) | 1 µM (active) |  | 0.59 µM (active) | 0.0207 µM (active) | 0.064 µM (active) | 0.0631 µM (active) | 3.3 µM (inactive) | 0.0351 µM (active) | 0.0398 µM (active) | < 0.015 | 0.219 µM (active) | 0.0276 µM (active) | 3.87 µM (inactive) | 0.0309 µM (active) | 0.0562 µM (active) |
| Cc1cc2c(O)c(c1)CN(Cc1ccccc1)Cc1cc(C)cc(c1O)CN(Cc1ccccc1)Cc1cc(C)cc(c1O)CN(Cc1ccccc1)C2 | > 100 µM (inactive) | > 100 µM (inactive) | > 100 µM (inactive) | > 100 µM (inactive) | > 100 µM (inactive) |  |  | > 100 µM (inactive) | > 100 µM (inactive) | > 100 µM (inactive) | > 100 µM (inactive) | > 100 µM (inactive) | > 100 µM (inactive) | > 100 µM (inactive) | > 100 | > 100 µM (inactive) | > 100 µM (inactive) | > 100 µM (inactive) | > 100 µM (inactive) | > 100 µM (inactive) |
| CC(=O)c1ccc2c3c1[C@H]1O[C@H]1c1cccc(c1-3)[C@@H]1O[C@H]21 | 0.286 µM (active) | 1.87 µM (inactive) | 2.37 µM (inactive) | 2.37 µM (inactive) | 1.37 µM (inactive) | 1.9 µM (inactive) | 1.57 µM (inactive) | 1.87 µM (inactive) | 1.69 µM (inactive) | 1.85 µM (inactive) | 1.93 µM (inactive) | 1.79 µM (inactive) |  | 1.49 µM (inactive) | 0.959 | 0.112 µM (active) | 1.53 µM (inactive) | 1.95 µM (inactive) | 1.61 µM (inactive) |  |
| O=C(C/N=C(\CN(c1ccccc1)c1ccccc1)Oc1ccc(Cl)cc1Cl)n1ccnc1 |  | > 100 µM (inactive) | > 100 µM (inactive) | > 100 µM (inactive) | > 100 µM (inactive) | > 100 µM (inactive) | 63 µM (inactive) | > 100 µM (inactive) | > 100 µM (inactive) | > 100 µM (inactive) | > 100 µM (inactive) | > 100 µM (inactive) | > 100 µM (inactive) | > 100 µM (inactive) | > 100 | > 100 µM (inactive) | > 100 µM (inactive) | > 100 µM (inactive) | > 100 µM (inactive) |  |
| CC(C)(C)C(=O)CP(=O)(O)O | > 100 µM (inactive) | > 100 µM (inactive) | > 100 µM (inactive) | > 100 µM (inactive) | > 100 µM (inactive) | > 100 µM (inactive) | > 100 µM (inactive) | > 100 µM (inactive) |  | > 100 µM (inactive) | > 100 µM (inactive) | > 100 µM (inactive) | > 100 µM (inactive) | > 100 µM (inactive) | > 100 | > 100 µM (inactive) | > 100 µM (inactive) | > 100 µM (inactive) | > 100 µM (inactive) |  |
| CC(C)(Cc1ccccc1)N1C(=O)N1C(C)(C)Cc1ccccc1 | 13.8 µM (inactive) | 29.4 µM (inactive) | > 100 µM (inactive) | > 100 µM (inactive) | 23.4 µM (inactive) | 92.7 µM (inactive) |  | > 100 µM (inactive) | 14.1 µM (inactive) | 52 µM (inactive) | 38 µM (inactive) | > 100 µM (inactive) | > 100 µM (inactive) | 24 µM (inactive) | 21.4 | 29.9 µM (inactive) | > 100 µM (inactive) | 19.9 µM (inactive) | 34.8 µM (inactive) | > 100 µM (inactive) |
